From ChEMBL document CHEMBL4706653, “Ultra-short lipopeptides against gram-positive bacteria while alleviating antimicrobial resistance” (Eur J Med Chem, 2021)
Converted amounts (≈) assume the structure as drawn. The source made the active and inactive calls. The rule behind the calls is not given here. Residues, ends and D or L forms follow the SMILES beside them. *: point of attachment. Stearoyl = CCCCCCCCCCCCCCCCCC(=O)*; Palmitoyl = CCCCCCCCCCCCCCCC(=O)*

What was measured:
[1] = system: Staphylococcus aureus; assay: Antimicrobial activity against methicillin-resistant Staphylococcus aureus 113 after 18 hrs by broth microdilution method; assay type: functional
[2] = system: Staphylococcus epidermidis; assay: Antimicrobial activity against Staphylococcus epidermidis ATCC 12228 after 18 hrs by broth microdilution method; assay type: functional
[3] = system: Staphylococcus aureus; assay: Antimicrobial activity against Staphylococcus aureus ATCC 29213 after 18 hrs by broth microdilution method; assay type: functional
[4] = system: Staphylococcus aureus; assay: Antimicrobial activity against Staphylococcus aureus ATCC 25923 after 18 hrs by broth microdilution method; assay type: functional
[5] = system: Erythrocyte; assay: Hemolytic activity against mouse erythrocytes measured after 1 hr; assay type: ADME, cell-based
[6] = system: Staphylococcus aureus; assay: Antimicrobial activity against methicillin-resistant Staphylococcus aureus 75 after 18 hrs by broth microdilution method; assay type: functional
[7] = system: Bacillus subtilis; assay: Antimicrobial activity against Bacillus subtilis ATCC 23857 after 18 hrs by broth microdilution method; assay type: functional
[8] = Therapeutic index, ratio of MHC for mouse RBC to geometric mean of peptide MIC for Staphylococcus epidermidis ATCC 12228; assay type: toxicity; details: pooled result: one value given for 6 cell lines, strains, targets or settings, read-out: TI
[9] = system: Staphylococcus aureus; assay: Antimicrobial activity against Staphylococcus aureus ATCC 25923 assessed as bacterial killing preincubated for 4 hrs followed by replating on MHB agar and measured after 24 hrs by time kill assay; assay type: functional, organism-based; details: time 28.0 hrs
[10] = system: Cell membrane; assay: Induction of cytoplasmic membrane disruption in Staphylococcus aureus ATCC 25923 measured for 15 mins by DiSC3-5 dye based fluorescence assay
[11] = Binding affinity to LTA (unknown origin) assessed as bacterial killing at 2 times MIC preincubated for 1 hr followed by Staphylococcus aureus ATCC 25923 addition and measured after 2 hrs by colony counting method; details: time 3.0 hrs
[12] = system: Cell membrane; assay: Induction of membrane disruption in Staphylococcus aureus ATCC 25923 measured after 2 hrs by propidium iodide staining based flow cytometry
[13] = system: Staphylococcus aureus; assay: Antimicrobial activity against Staphylococcus aureus ATCC 25923 infected in neutropenia BALB/c mouse assessed as reduction in lung bacterial load at 10 to 20 mg/kg, ip administered staring from 2 hrs post infection and measured 8 hrs post-infected; assay type: functional, organism-based; details: dose 10-20 mg/kg, time 6.0 hrs
[14] = system: Staphylococcus aureus; assay: Induction of nucleic acid leakage in Staphylococcus aureus ATCC 25923 at 4 times MIC; assay type: functional
[15] = system: Staphylococcus aureus; assay: Induction of reactive oxygen species generation in Staphylococcus aureus ATCC 25923 by […] dye based fluorescence assay; assay type: functional, organism-based
[16] = system: Lipopolysaccharide (LPS); assay: Binding affinity to LPS (unknown origin) assessed as bacterial killing at 2 times MIC preincubated for 1 hr followed by Staphylococcus aureus ATCC 25923 addition and measured after 2 hrs by colony counting method; details: time 3.0 hrs
[17] = system: Staphylococcus aureus; assay: Antimicrobial activity against Staphylococcus aureus ATCC 25923 infected in neutropenia BALB/c mouse assessed as reduction in bacterial load in liver at 10 to 20 mg/kg, ip administered staring from 2 hrs post infection and measured 8 hrs post-infected; assay type: functional, organism-based; details: dose 10-20 mg/kg, time 6.0 hrs
[18] = system: Staphylococcus aureus; assay: Antimicrobial activity against Staphylococcus aureus ATCC 25923 infected in neutropenia BALB/c mouse assessed as reduction in bacterial load in spleen at 10 to 20 mg/kg, ip administered staring from 2 hrs post infection and measured 8 hrs post-infected; assay type: functional, organism-based; details: dose 10-20 mg/kg, time 6.0 hrs
[19] = system: Staphylococcus aureus; assay: Antimicrobial activity against Staphylococcus aureus ATCC 25923 infected in neutropenia BALB/c mouse assessed as reduction in bacterial load in kidney at 10 to 20 mg/kg, ip administered staring from 2 hrs post infection and measured 8 hrs post-infected; assay type: functional, organism-based; details: dose 10-20 mg/kg, time 6.0 hrs
[20] = system: Mus musculus; assay: Antiinflammatory activity in Staphylococcus aureus ATCC 25923 infected neutropenia BALB/c mouse assessed as reduction in TNFalpha level in serum at 10 to 20 mg/kg, ip administered staring from 2 hrs post infection and measured 8 hrs post-infected; assay type: functional, organism-based; details: dose 10-20 mg/kg, time 6.0 hrs
[21] = system: Staphylococcus aureus; assay: Antibiofilm activity against Staphylococcus aureus ATCC 25923 at 0.5 to 8 uM after 24 hrs by crystal violet staining based assay; assay type: functional, organism-based; details: dose 0.5-8 µM
[22] = system: Staphylococcus aureus; assay: Antibiofilm activity against ciprofloxacin-resistant Staphylococcus aureus ATCC 25923 at 0.5 to 8 uM after 24 hrs by crystal violet staining based assay; assay type: functional, organism-based; details: dose 0.5-8 µM
[23] = system: Cell membrane; assay: Induction of membrane disruption in Staphylococcus aureus ATCC 25923 measured after 2 hrs by propidium iodide staining based confocal laser scanning microscopic analysis; assay type: subcellular

CCCCCCCCCCCCCCCC(=O)N[C@@H](CCCNC(=N)N)C(=O)N[C@@H](CCCNC(=N)N)C(=O)N[C@@H](CCCNC(=N)N)C(N)=O (Palmitoyl-Arg-Arg-Arg-NH2)
MIC [1]: 2 µM (≈ 1.45 µg/mL) | MIC [2]: 8 µM (≈ 5.79 µg/mL) | MIC [3]: 32 µM (≈ 23.2 µg/mL) | MIC [4]: 8 µM (≈ 5.79 µg/mL) | MHC10 [5]: 64 µM | MIC [6]: 8 µM (≈ 5.79 µg/mL) | MIC [7]: 8 µM (≈ 5.79 µg/mL) | selectivity ratio [8]: 5.83

CCCCCCCCCCCCCCCC(=O)N[C@@H](CCCNC(=N)N)C(=O)N[C@@H](CCCNC(=N)N)C(=O)N[C@@H](Cc1c[nH]c2ccccc12)C(N)=O (Palmitoyl-Arg-Arg-Trp-NH2)
MIC [1]: 2 µM (≈ 1.51 µg/mL) | MIC [2]: 8 µM (≈ 6.03 µg/mL) | MIC [3]: 8 µM (≈ 6.03 µg/mL) | MIC [4]: 8 µM (≈ 6.03 µg/mL) | MHC10 [5]: 32 µM | MIC [6]: 8 µM (≈ 6.03 µg/mL) | MIC [7]: 4 µM (≈ 3.02 µg/mL) | selectivity ratio [8]: 5.05

CCCCCCCCCCCCCCCC(=O)N[C@@H](CCCNC(=N)N)C(=O)N[C@@H](Cc1c[nH]c2ccccc12)C(=O)N[C@@H](CCCNC(=N)N)C(N)=O (Palmitoyl-Arg-Trp-Arg-NH2)
MIC [1]: 4 µM (≈ 3.02 µg/mL) | MIC [2]: 8 µM (≈ 6.03 µg/mL) | MIC [3]: 16 µM (≈ 12.1 µg/mL) | MIC [4]: 8 µM (≈ 6.03 µg/mL) | MHC10 [5]: 64 µM | MIC [6]: 8 µM (≈ 6.03 µg/mL) | MIC [7]: 8 µM (≈ 6.03 µg/mL) | selectivity ratio [8]: 7.38

CCCCCCCCCCCCCCCC(=O)N[C@@H](CCCNC(=N)N)C(=O)N[C@@H](Cc1c[nH]c2ccccc12)C(=O)N[C@@H](Cc1c[nH]c2ccccc12)C(N)=O (Palmitoyl-Arg-Trp-Trp-NH2)
MIC [1]: 8 µM (≈ 6.27 µg/mL) | MIC [2]: 16 µM (≈ 12.5 µg/mL) | MIC [3]: 32 µM (≈ 25.1 µg/mL) | MIC [4]: 16 µM (≈ 12.5 µg/mL) | MHC10 [5]: > 256 µM | MIC [6]: 32 µM (≈ 25.1 µg/mL) | MIC [7]: 64 µM (≈ 50.2 µg/mL) | selectivity ratio [8]: 18.3

CCCCCCCCCCCCCCCC(=O)N[C@@H](Cc1c[nH]c2ccccc12)C(=O)N[C@@H](CCCNC(=N)N)C(=O)N[C@@H](CCCNC(=N)N)C(N)=O (Palmitoyl-Trp-Arg-Arg-NH2)
MIC [1]: 8 µM (≈ 6.03 µg/mL) | MIC [2]: 8 µM (≈ 6.03 µg/mL) | MIC [3]: 8 µM (≈ 6.03 µg/mL) | MIC [4]: 8 µM (≈ 6.03 µg/mL) | MHC10 [5]: 32 µM | MIC [6]: 8 µM (≈ 6.03 µg/mL) | MIC [7]: 8 µM (≈ 6.03 µg/mL) | selectivity ratio [8]: 4

CCCCCCCCCCCCCCCCCC(=O)N[C@@H](CCCNC(=N)N)C(=O)N[C@@H](CCCNC(=N)N)C(=O)N[C@@H](CCCNC(=N)N)C(N)=O (Stearoyl-Arg-Arg-Arg-NH2)
MIC [1]: 2 µM (≈ 1.5 µg/mL) | MIC [2]: 8 µM (≈ 6.02 µg/mL) | MIC [3]: 4 µM (≈ 3.01 µg/mL) | MIC [4]: 4 µM (≈ 3.01 µg/mL) | MHC10 [5]: 32 µM | MIC [6]: 4 µM (≈ 3.01 µg/mL) | MIC [7]: 8 µM (≈ 6.02 µg/mL) | selectivity ratio [8]: 4

CCCCCCCCCCCCCCCCCC(=O)N[C@@H](CCCNC(=N)N)C(=O)N[C@@H](CCCNC(=N)N)C(=O)N[C@@H](Cc1c[nH]c2ccccc12)C(N)=O (Stearoyl-Arg-Arg-Trp-NH2)
MIC [1]: 8 µM (≈ 6.26 µg/mL) | MIC [2]: 4 µM (≈ 3.13 µg/mL) | MIC [3]: 8 µM (≈ 6.26 µg/mL) | MIC [4]: 8 µM (≈ 6.26 µg/mL) | MHC10 [5]: 32 µM | MIC [6]: 16 µM (≈ 12.5 µg/mL) | MIC [7]: 8 µM (≈ 6.26 µg/mL) | selectivity ratio [8]: 3.69

CCCCCCCCCCCCCCCCCC(=O)N[C@@H](CCCNC(=N)N)C(=O)N[C@@H](Cc1c[nH]c2ccccc12)C(=O)N[C@@H](CCCNC(=N)N)C(N)=O (Stearoyl-Arg-Trp-Arg-NH2)
MIC [1]: 8 µM (≈ 6.26 µg/mL) | MIC [2]: 8 µM (≈ 6.26 µg/mL) | MIC [3]: 128 µM (≈ 100 µg/mL) | MIC [4]: 16 µM (≈ 12.5 µg/mL) | MHC10 [5]: 32 µM | MIC [6]: 8 µM (≈ 6.26 µg/mL) | MIC [7]: 16 µM (≈ 12.5 µg/mL) | selectivity ratio [8]: 1.04

CCCCCCCCCCCCCCCCCC(=O)N[C@@H](CCCNC(=N)N)C(=O)N[C@@H](Cc1c[nH]c2ccccc12)C(=O)N[C@@H](Cc1c[nH]c2ccccc12)C(N)=O (Stearoyl-Arg-Trp-Trp-NH2)
MIC [1]: > 128 µM | MIC [2]: 128 µM (≈ 104 µg/mL) | MIC [3]: > 128 µM | MIC [4]: > 128 µM | MHC10 [5]: 256 µM | MIC [6]: > 128 µM | MIC [7]: > 128 µM | selectivity ratio [8]: 1.09

CCCCCCCCCCCCCCCCCC(=O)N[C@@H](Cc1c[nH]c2ccccc12)C(=O)N[C@@H](CCCNC(=N)N)C(=O)N[C@@H](CCCNC(=N)N)C(N)=O (Stearoyl-Trp-Arg-Arg-NH2)
MIC [1]: 16 µM (≈ 12.5 µg/mL) | MIC [2]: 8 µM (≈ 6.26 µg/mL) | MIC [3]: 32 µM (≈ 25 µg/mL) | MIC [4]: 16 µM (≈ 12.5 µg/mL) | MHC10 [5]: 32 µM | MIC [6]: 8 µM (≈ 6.26 µg/mL) | MIC [7]: 16 µM (≈ 12.5 µg/mL) | selectivity ratio [8]: 2

O=C(O)c1cn(C2CC2)c2cc(N3CCNCC3)c(F)cc2c1=O [CIPROFLOXACIN]
Activity [9]: inactive | MIC [1]: < 1 µM | MIC [2]: < 1 µM | Activity [10]: inactive | MIC [3]: 1 µM (≈ 0.331 µg/mL) | Activity [11]: inactive | Activity [12]: inactive | MIC [4]: 1 µM (≈ 0.331 µg/mL) | Activity [13]: Active | Activity [14]: Active | Activity [15]: Active | MIC [6]: 128 µM (≈ 42.4 µg/mL) | Activity [16]: inactive | Activity [17]: Active | Activity [18]: Active | Activity [19]: Active | Activity [20]: Active | Activity [21]: Active | MIC [7]: < 1 µM | Activity [22]: Active | Activity [23]: inactive
